From patent US20240343733A1, “COMPOUNDS FOR TARGETING DEGRADATION OF IRAK4 PROTEINS” (BIOGEN MA INC., priority 2021, published 2024) come the findings set out here.

For the assay, the target named is T1, IRAK4 (Homo sapiens, UniProt Q9NWZ3).
T1 construct: 293Tcells expressing HiBiT-tagged IRAK4 were then added into 384-well plates
T1 sequence (Q9NWZ3 1-460): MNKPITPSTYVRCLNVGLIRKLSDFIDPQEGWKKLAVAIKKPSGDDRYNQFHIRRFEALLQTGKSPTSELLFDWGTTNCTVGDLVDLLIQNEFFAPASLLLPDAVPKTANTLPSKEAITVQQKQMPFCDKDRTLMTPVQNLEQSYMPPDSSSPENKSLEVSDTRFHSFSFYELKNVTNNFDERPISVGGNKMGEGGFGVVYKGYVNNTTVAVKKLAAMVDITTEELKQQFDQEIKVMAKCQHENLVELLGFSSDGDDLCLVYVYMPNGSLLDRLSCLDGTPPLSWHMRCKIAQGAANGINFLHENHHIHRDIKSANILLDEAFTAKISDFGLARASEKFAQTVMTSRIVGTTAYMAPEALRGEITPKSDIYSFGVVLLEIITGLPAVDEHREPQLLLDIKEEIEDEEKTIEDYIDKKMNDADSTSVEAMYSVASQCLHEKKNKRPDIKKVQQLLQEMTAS
Briefly: IRAK4 Degradation Assay, HiBiT Method. The assay is classed as cell-based. As to conditions: 293T cells expressing HiBiT-tagged IRAK4, 6 hours. The essentials: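 293T cells with HiBiT knocked in at the C-terminus of endogenous IRAK4, 10,000 per well, treated 6 h at 37 °C with an 11-point half-log series ([…]), in duplicate. Remaining IRAK4 read by Nano-Glo HiBiT lytic luminescence against DMSO-only and media-only controls.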
Regarding `CC(C)Oc1cc2nc(C3CCN(C(=O)CCCCNc4ccc(C5CCC(=O)NC5=O)cn4)CC3)cn2cc1C(=O)Nc1cccn([C@H]2C[C@H]2F)c1=O` (stereo partly drawn) [Example 165, 2-(1-(5-((5-(2,6-dioxopiperidin-3-yl)pyridin-2-yl)amino)pentanoyl)piperidin-4-yl)-N-(1-((1S,2R)-2-fluorocyclopropyl)-2-oxo-1,2-dihydropyridin-3-yl)-7-isopropoxyimidazo[1,2-a]pyridine-6-carboxamide], the half-maximal degradation concentration (DC50) (usually the concentration giving 50% degradation) was in the range of 10 to 100 nM.

Turning to `CC(C)Oc1cc2nn([C@H]3CC[C@H](CN4CCC(c5ccc(O[C@@H]6CCC(=O)NC6=O)cc5)CC4)CC3)cc2cc1C(=O)Nc1cccn(C2CC2)c1=O` (single isomer, unassigned) [Example 143], the DC50 lay in the range of 10 to 100 nM. Then `CC(C)Oc1cc2nn(C3CCN(C(=O)CC4(O)CCN(c5cc(F)c(NC6CCC(=O)NC6=O)cc5F)CC4)CC3)cc2cc1C(=O)Nc1cccc(C(F)F)n1` (stereo not drawn) [Example 66, N-(6-(difluoromethyl)pyridin-2-yl)-2-(1-(2-(1-(4-((2,6-dioxopiperidin-3-yl)amino)-2,5-difluorophenyl)-4-hydroxypiperidin-4-yl)acetyl)piperidin-4-yl)-6-isopropoxy-2H-indazole-5-carboxamide], with 10 to 100 nM; and `CC(C)Oc1cc2nc(C3CCN(C(=O)NC4CCN(c5ccc(C6CCC(=O)NC6=O)cn5)CC4)CC3)cn2cc1C(=O)Nc1cnn2cccnc12` (stereo not drawn) [Example 157, 2-[1-[[1-[5-(2,6-dioxo-3-piperidyl)-2-pyridyl]-4-piperidyl]carbamoyl]-4-piperidyl]-7-isopropoxy-N-pyrazolo[1,5-a]pyrimidin-3-yl-imidazo[1,2-a]pyridine-6-carboxamide], with below 10 nM; and `Cc1cnc2c(NC(=O)c3cn4cc([C@H]5CC[C@H](CN6CCC(c7cc(F)c(C8CCC(=O)NC8=O)cc7F)C(F)(F)C6)CC5)nc4cc3OC(C)C)cnn2c1` (stereo partly drawn) [Example 54, 2-[4-[[4-[4-(2,6-dioxo-3-piperidyl)-2,5-difluoro-phenyl]-3,3-difluoro-1-piperidyl]methyl]cyclohexyl]-7-isopropoxy-N-(6-methylpyrazolo[1,5-a]pyrimidin-3-yl)imidazo[1,2-a]pyridine-6-carboxamide], with 100 to 500 nM. Then `CC(C)Oc1cc2nn([C@H]3CC[C@H](CN4CC5(CCN(c6ncc(C7CCC(=O)NC7=O)cc6F)CC5)C4)CC3)cc2cc1C(=O)Nc1cnn2cccnc12` (stereo partly drawn) [Example 117, 2-((1r,4r)-4-((7-(5-(2,6-dioxopiperidin-3-yl)-3-fluoropyridin-2-yl)-2,7-diazaspiro[3.5]nonan-2-yl)methyl)cyclohexyl)-6-isopropoxy-N-(pyrazolo[1,5-a]pyrimidin-3-yl)-2H-indazole-5-carboxamide], with below 10 nM. Molecule `CC(C)Oc1cc2nc(C3CCN(CC(=O)N4CCC(c5ccc(NC6CCC(=O)NC6=O)cc5)CC4)CC3)cn2cc1C(=O)Nc1ccc(F)cc1F` (stereo not drawn) [Example 94, N-(2,4-difluorophenyl)-2-[1-[2-[4-[4-[(2,6-dioxo-3-piperidyl)amino]phenyl]-1-piperidyl]-2-oxo-ethyl]-4-piperidyl]-7-isopropoxy-imidazo[1,2-a]pyridine-6-carboxamide] yielded a DC50 of 100 to 500 nM. Then `CC(C)Oc1cc2nc([C@H]3CC[C@H](CN(C)C4CCN(c5ccc(NC6CCC(=O)NC6=O)cc5)CC4)CC3)cn2cc1C(=O)Nc1cccc(C(F)(F)F)n1` (stereo partly drawn) [Example 7, 2-[4-[[[1-[4-[(2,6-dioxo-3-piperidyl)amino]phenyl]-4-piperidyl]-methyl-amino]methyl]cyclohexyl]-7-isopropoxy-N-[6-(trifluoromethyl)-2-pyridyl]imidazo[1,2-a]pyridine-6-carboxamide], with 100 to 500 nM; and `CC(C)Oc1cc2nc([C@H]3CC[C@H](CN4CCC(c5cccc6c5n(C)c(=O)n6C5CCC(=O)NC5=O)CC4)CC3)cn2cc1C(=O)Nc1cccc(C(F)(F)F)n1` (stereo partly drawn) [Example 3, 2-[4-[[4-[1-(2,6-dioxo-3-piperidyl)-3-methyl-2-oxo-benzimidazol-4-yl]-1-piperidyl]methyl]cyclohexyl]-7-isopropoxy-N-[6-(trifluoromethyl)-2-pyridyl]imidazo[1,2-a]pyridine-6-carboxamide], with 100 to 500 nM.
